# Measurements from ChEMBL document CHEMBL1201862, “PubChem BioAssay data set” (2004).
#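 Cultured in 96-well plates, cells were exposed to test compound for 48 hours across five concentrations. GI50: concentration for 50% inhibition of growth.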 Activity calls are given as the source filed them. No stated cut-off is given here; in the data, active = GI50 up to about 1.1 µM and inactive = higher. *1 amine or outer side, *2 acyl side, *3 side chain or, on linkers, in order; H or OH if unused. Where a SMILES comes first, the peptide text is derived from it. The star is where a group is joined. γGlu = O=C(O)[CH](CCC(=O)[*:2])N[*:1]; NHOH = ON*
# Assays:
# Assay in all cases: DTP human tumour cell line panel, 48 h
# [1] = test system: SF-295
# [2] = test system: RXF 393
# [3] = test system: K562
# [4] = test system: NCI-H226
# [5] = test system: MDA-MB-435
# [6] = test system: SK-MEL-2
# [7] = test system: BT-549
# [8] = test system: OVCAR-5
# [9] = test system: SN12C
# [10] = test system: Hs-578T
# [11] = test system: M14
# [12] = test system: HT-29
# [13] = test system: OVCAR-8
# [14] = test system: LOX IMVI
# [15] = test system: SW-620
# [16] = test system: UACC-62
# [17] = test system: KM12
# [18] = test system: 786-0
# [19] = test system: CAKI-1
# [20] = test system: NCI-H522
SMILES,GI50 [1],GI50 [2],GI50 [3],GI50 [4],GI50 [5],GI50 [6],GI50 [7],GI50 [8],GI50 [9],GI50 [10],GI50 [11],GI50 [12],GI50 [13],GI50 [14],GI50 [15],GI50 [16],GI50 [17],GI50 [18],GI50 [19],GI50 [20]
CC1(C)O[C@H]2OC(CO[Si](C)(C)C(C)(C)C)C(N=[N+]=[N-])[C@H]2O1 (some centres not stated),11.8 µM (inactive),16.6 µM (inactive),13.3 µM (inactive),20 µM (inactive),25.8 µM (inactive),17.2 µM (inactive),21.6 µM (inactive),20.5 µM (inactive),20 µM (inactive),23.6 µM (inactive),19.2 µM (inactive),12.5 µM (inactive),20.1 µM (inactive),21 µM (inactive),21.5 µM (inactive),19.1 µM (inactive),18.7 µM (inactive),18.2 µM (inactive),23.8 µM (inactive),
C=CC[C@@]1(C(=O)OC)[C@H](Sc2ccccc2)C1(C)C,36.1 µM (inactive),,,35.5 µM (inactive),30.9 µM (inactive),24.2 µM (inactive),46 µM (inactive),80.9 µM (inactive),21.1 µM (inactive),55.6 µM (inactive),56.8 µM (inactive),24.9 µM (inactive),53.8 µM (inactive),,61.4 µM (inactive),45.5 µM (inactive),35.1 µM (inactive),33.4 µM (inactive),74.8 µM (inactive),30.5 µM (inactive)
c1ccc2c(c1)NC(C1OC3CCCN3C1C1Nc3ccccc3S1)S2 (configuration not stated),90.6 µM (inactive),21.2 µM (inactive),31 µM (inactive),,75.2 µM (inactive),,78.2 µM (inactive),> 100 µM (inactive),> 100 µM (inactive),> 100 µM (inactive),> 100 µM (inactive),44.4 µM (inactive),52.1 µM (inactive),,> 100 µM (inactive),79.8 µM (inactive),46.5 µM (inactive),> 100 µM (inactive),> 100 µM (inactive),28.2 µM (inactive)
COc1ccc2oc(S(=O)(=O)N3CC(CCl)c4ccc(N)cc43)cc2c1 (configuration not stated),0.042 µM (active),,0.0225 µM (active),0.0412 µM (active),0.0113 µM (active),< 0.0443 µM (active),2.31 µM (inactive),> 19.3 µM (inactive),0.119 µM (active),0.0161 µM (active),0.0393 µM (active),2.25 µM (inactive),0.152 µM (active),0.0471 µM (active),0.0395 µM (active),0.0246 µM (active),0.0228 µM (active),0.0264 µM (active),0.0366 µM (active),0.0184 µM (active)
O=C1/C(=C/c2ccc(Cl)cc2)CCC/C1=C\c1ccc(O)c(CN2CCCCC2)c1,14.2 µM (inactive),,9.29 µM (inactive),16.1 µM (inactive),17 µM (inactive),42.1 µM (inactive),11.2 µM (inactive),23.8 µM (inactive),26.6 µM (inactive),15.7 µM (inactive),20.8 µM (inactive),3.54 µM (inactive),14.5 µM (inactive),13.1 µM (inactive),18 µM (inactive),16.1 µM (inactive),4.51 µM (inactive),15 µM (inactive),18.9 µM (inactive),
O=C1c2ccccc2C(=O)c2nn(N=P(CP(=Nn3nc4c(n3)C(=O)c3ccccc3C4=O)(c3ccccc3)c3ccccc3)(c3ccccc3)c3ccccc3)nc21,> 100 µM (inactive),> 100 µM (inactive),> 100 µM (inactive),,> 100 µM (inactive),> 100 µM (inactive),> 100 µM (inactive),> 100 µM (inactive),> 100 µM (inactive),> 100 µM (inactive),> 100 µM (inactive),> 100 µM (inactive),> 100 µM (inactive),> 100 µM (inactive),> 100 µM (inactive),> 100 µM (inactive),> 100 µM (inactive),> 100 µM (inactive),> 100 µM (inactive),> 100 µM (inactive)
COc1cccc(NC(=O)CC(=O)N2N=C(C)C(/N=N/c3ccc(C(=O)O)cc3)C2=O)c1 (configuration not stated),> 100 µM (inactive),> 100 µM (inactive),> 100 µM (inactive),,> 100 µM (inactive),> 100 µM (inactive),> 100 µM (inactive),> 100 µM (inactive),> 100 µM (inactive),> 100 µM (inactive),> 100 µM (inactive),93.8 µM (inactive),> 100 µM (inactive),> 100 µM (inactive),> 100 µM (inactive),> 100 µM (inactive),> 100 µM (inactive),> 100 µM (inactive),> 100 µM (inactive),43.1 µM (inactive)
NC(CCC(=O)NC(CCC(=O)NO)C(=O)NCC(=O)O)C(=O)O (configuration not stated) (γGlu-Glu(NHOH)-Gly-OH; configuration not given here),> 100 µM (inactive),> 100 µM (inactive),> 100 µM (inactive),> 100 µM (inactive),> 100 µM (inactive),> 100 µM (inactive),> 100 µM (inactive),> 100 µM (inactive),> 100 µM (inactive),,> 100 µM (inactive),> 100 µM (inactive),> 100 µM (inactive),> 100 µM (inactive),> 100 µM (inactive),> 100 µM (inactive),> 100 µM (inactive),> 100 µM (inactive),> 100 µM (inactive),> 100 µM (inactive)
Nc1n[nH]c2nc3ccc(C(F)(F)F)cc3nc12,24.5 µM (inactive),16.4 µM (inactive),42.7 µM (inactive),,64.9 µM (inactive),23.3 µM (inactive),23.1 µM (inactive),25.6 µM (inactive),26.2 µM (inactive),28.5 µM (inactive),33.3 µM (inactive),29.8 µM (inactive),19.8 µM (inactive),18.6 µM (inactive),19.3 µM (inactive),21 µM (inactive),57.1 µM (inactive),21 µM (inactive),31.5 µM (inactive),20.3 µM (inactive)
CCN(CC)CCNc1ccc2nnn3c4ccc(OCCN(CC)CC)cc4c(=O)c1c23,65.3 µM (inactive),62.5 µM (inactive),38.6 µM (inactive),,49.5 µM (inactive),> 100 µM (inactive),> 100 µM (inactive),> 100 µM (inactive),32.4 µM (inactive),> 100 µM (inactive),> 100 µM (inactive),18.5 µM (inactive),27.9 µM (inactive),,38.2 µM (inactive),> 100 µM (inactive),32.3 µM (inactive),21.6 µM (inactive),66.1 µM (inactive),18.8 µM (inactive)
CCOC(=O)C(NC(=O)Nc1ccccc1F)(OC)C(F)(F)F (configuration not stated),,> 100 µM (inactive),> 100 µM (inactive),,> 100 µM (inactive),> 100 µM (inactive),> 100 µM (inactive),> 100 µM (inactive),> 100 µM (inactive),> 100 µM (inactive),> 100 µM (inactive),> 100 µM (inactive),> 100 µM (inactive),> 100 µM (inactive),> 100 µM (inactive),,,> 100 µM (inactive),44.5 µM (inactive),
CC(=O)NC1c2ccccc2C(C)(C)C12CCC1(CC2)OCCO1 (configuration not stated),> 100 µM (inactive),37.9 µM (inactive),> 100 µM (inactive),> 100 µM (inactive),,> 100 µM (inactive),> 100 µM (inactive),> 100 µM (inactive),> 10 µM (inactive),> 100 µM (inactive),> 100 µM (inactive),> 100 µM (inactive),> 100 µM (inactive),> 100 µM (inactive),> 100 µM (inactive),> 100 µM (inactive),> 100 µM (inactive),> 100 µM (inactive),> 100 µM (inactive),> 100 µM (inactive)
Cc1cc(O)c2c(c1O)C(=O)C1=C(C2=O)C(=O)C2C(O)C1C1C(O)CC(O)=C3C(=O)c4c(O)cc(C)c(O)c4C(=O)C321 (configuration not stated),0.386 µM (active),,0.506 µM (active),0.885 µM (active),1.36 µM (inactive),1.73 µM (inactive),3.66 µM (inactive),3.62 µM (inactive),2.12 µM (inactive),0.553 µM (active),2.3 µM (inactive),0.555 µM (active),1.06 µM (active),1.57 µM (inactive),1.45 µM (inactive),1.12 µM (active),0.697 µM (active),1.71 µM (inactive),1.75 µM (inactive),
C[Si](C)(C)C#CCOC=C1CC1,> 100 µM (inactive),3.45 µM (inactive),> 100 µM (inactive),> 100 µM (inactive),,> 100 µM (inactive),> 100 µM (inactive),> 100 µM (inactive),> 100 µM (inactive),> 100 µM (inactive),> 100 µM (inactive),> 100 µM (inactive),> 100 µM (inactive),28.6 µM (inactive),> 100 µM (inactive),> 100 µM (inactive),> 100 µM (inactive),47.1 µM (inactive),> 100 µM (inactive),> 100 µM (inactive)
CSc1c(C#N)c2n(c3ccccc13)c1ccccc1[n+]2C,34 µM (inactive),,,,20.9 µM (inactive),20.3 µM (inactive),19.7 µM (inactive),31.4 µM (inactive),18.2 µM (inactive),30.5 µM (inactive),29.3 µM (inactive),21 µM (inactive),24 µM (inactive),33.1 µM (inactive),23.8 µM (inactive),16.9 µM (inactive),28.5 µM (inactive),32.7 µM (inactive),21.3 µM (inactive),12.3 µM (inactive)
